IC50 data for seven compounds are collected here from ChEMBL document CHEMBL5260828, “Amphiphilic glycoconjugates as potential anti-cancer chemotherapeutics” (Eur J Med Chem, 2018).

What all share (assay type): functional, cell-based
Test [1] relates to MCF7. Kind of test: Antiproliferative activity against human MCF7 cells assessed as inhibition of cell proliferation incubated for 24 hrs by trypan blue assay. The settings on record: MCF7, 24 h.
A further test relates to L1210. Kind of test: Cytotoxicity against mouse L1210 cells incubated for 3 days by MTT assay. The settings on record: L1210, 72 h. For orientation: Tetrazolium assays rely on reduction of a dye to a coloured formazan, in cell work by metabolically active cells.
The subject of a further test is Colon 26. Kind of test: Cytotoxicity against mouse Colon 26 cells incubated for 3 days by MTT assay. The note with it: Colon 26, 72 h.
For the next test, the system named is KB. Kind of test: Cytotoxicity against human KB cells by MTT assay.
In a further test the test system is HeLa. Kind of test: Cytotoxicity against human HeLa cells by MTT assay.
A further test relates to K562. Kind of test: Cytotoxicity against human K562 cells by MTT assay.
For a further test, the system named is LXF-289 cell line. Kind of test: Cytotoxicity against human LXF-289 cell line assessed as inhibition of cell proliferation by propidium iodide assay.
A further test concerns NCI-H460. Kind of test: Cytotoxicity against human NCI-H460 cells assessed as inhibition of cell proliferation by propidium iodide assay.
Test [2] deals with HT-29. Kind of test: Cytotoxicity against human HT-29 cells assessed as inhibition of cell proliferation by propidium iodide assay.
The test system of a further test is RXF 944. Kind of test: Cytotoxicity against human RXF 944 cells assessed as inhibition of cell proliferation by propidium iodide assay.
A further test concerns RXF 393. Kind of test: Cytotoxicity against human RXF 393 cells assessed as inhibition of cell proliferation by propidium iodide assay.
For another test, the system named is LXFL 529. Kind of test: Cytotoxicity against human LXFL 529 cells assessed as inhibition of cell proliferation by propidium iodide assay.
A further test has as its system MAXF401 cell line. Kind of test: Cytotoxicity against human MAXF401 cells assessed as inhibition of cell proliferation by propidium iodide assay.
Test [3] deals with Lung LXF 629L tumor cell line. Kind of test: Cytotoxicity against human Lung LXF 629L tumor cell line assessed as inhibition of cell proliferation by propidium iodide assay.
In another test the test system is CWR22R. Kind of test: Cytotoxicity against human 22Rv1 cells assessed as inhibition of cell proliferation by propidium iodide assay.
Test [4] in a line: Cytotoxicity against human OVXF 899L cells assessed as inhibition of cell proliferation by propidium iodide assay.
The nature of test [5]: Cytotoxicity against human OVXF 1619L cells assessed as inhibition of cell proliferation by propidium iodide assay.
The next test relates to PANC-1. Kind of test: Cytotoxicity against human PANC-1 cells assessed as inhibition of cell proliferation by propidium iodide assay.
A further test relates to OVCAR-3. Kind of test: Cytotoxicity against human OVCAR-3 cells assessed as inhibition of cell proliferation by propidium iodide assay.
The test system of the next test is MEXF514. Kind of test: Cytotoxicity against human MEXF514 cells assessed as inhibition of cell proliferation by propidium iodide assay.
Test [6] can be described thus: Cytotoxicity against human MEXF 462NL cells assessed as inhibition of cell proliferation by propidium iodide assay.
Test [7] has as its system MCF7. Kind of test: Cytotoxicity against human MCF7 cells assessed as inhibition of cell proliferation by propidium iodide assay.
Another test concerns PC-3M. Kind of test: Cytotoxicity against human PC-3M cells assessed as inhibition of cell proliferation by propidium iodide assay.
For a further test, the system named is SF-268. Kind of test: Cytotoxicity against human SF-268 cells assessed as inhibition of cell proliferation by propidium iodide assay.
A short description of test [8]: Cytotoxicity against human RXF 486L cells assessed as inhibition of cell proliferation by propidium iodide assay.
In test [9] the test system is HCT-116. Kind of test: Cytotoxicity against human HCT-116 cells assessed as inhibition of cell proliferation by propidium iodide assay.
Another test deals with T-24. Kind of test: Cytotoxicity against human T24 cells assessed as inhibition of cell proliferation by propidium iodide assay.
For the next test, the system named is LNCaP. Kind of test: Cytotoxicity against human LNCaP cells assessed as inhibition of cell proliferation by propidium iodide assay.
A further test relates to DU-145. Kind of test: Cytotoxicity against human DU-145 cells assessed as inhibition of cell proliferation by propidium iodide assay.
The test system of a further test is MEXF276L. Kind of test: Cytotoxicity against human MEXF276L cells assessed as inhibition of cell proliferation by propidium iodide assay.
Test [10] can be described thus: Cytotoxicity against human GXF 251L cells assessed as inhibition of cell proliferation by propidium iodide assay.
Another test concerns T84. Kind of test: Cytotoxicity against human T84 cells incubated upto 96 hrs by MTT assay. The settings on record: T84, 96 h.
The next test has as its system Caco-2. Kind of test: Cytotoxicity against human Caco-2 cells incubated upto 96 hrs by MTT assay. The settings on record: Caco-2, 96 h.
Test [11] relates to HT-29. Kind of test: Cytotoxicity against human HT-29 cells incubated upto 96 hrs by MTT assay. The settings on record: HT-29, 96 h.
For test [12], the system named is HCT-116. Kind of test: Cytotoxicity against human HCT-116 cells.
The test system of another test is A2780. Kind of test: Cytotoxicity against human A2780 cells.
In a further test the test system is HCT-116/VM46. Kind of test: Cytotoxicity against human HCT-116/VM46 cells.
Another test relates to THP-1. Kind of test: Cytotoxicity against human THP-1 cells assessed as inhibition of cell growth incubated for 22 hrs by MTS spectrophotometric assay. The settings on record: THP-1, 22 h.
The subject of a further test is HL-60. Kind of test: Cytotoxicity against human HL-60 cells assessed as inhibition of cell growth incubated for 22 hrs by MTS spectrophotometric assay. The settings on record: HL-60, 22 h.

Each structure is given as a SMILES string. In brackets after ≈: the same amount, converted by molar mass.

The term IC50 denotes the point on the concentration scale where inhibition reaches its midpoint. Turning to `CCCCCCCC[C@@H]1[C@H](O)[C@@H](O)[C@H](O)[C@H]2COC(=O)N12`, the half-inhibitory concentration (IC50) in the test with MCF7 [1] was found to be 22 µM.
For `C/C=C(\C)[C@H](O)[C@H](C)/C=C(C)/C=C/C/C(C)=C/Cc1nc(OC)c(OC)c(OC2O[C@H](C)[C@H](O)[C@H](O)[C@@H]2O)c1C` (some centres undefined), the concentration for half-maximal inhibition (IC50) in the test on L1210 amounted to 7.91 µg/mL (≈ 14.1 µM); in the test on Colon 26, 0.81 µg/mL (≈ 1.44 µM).
As for `C/C=C(\C)[C@H](O)[C@H](C)/C=C(C)/C=C/C/C(C)=C/Cc1nc(OC)c(OC)c(OC2O[C@@H](C)[C@H](O)[C@@H](O)[C@H]2O)c1C` (some centres undefined), the 50% inhibitory concentration (IC50) amounted to 3.8 µg/mL (≈ 6.76 µM) in the test on KB, 2.8 µg/mL (≈ 4.98 µM) with HeLa and 4.6 µg/mL (≈ 8.19 µM) in the test on K562.
As to `C/C=C(\C)[C@H](O[C@@H]1O[C@H](CO)[C@@H](O)[C@H](O)[C@H]1O)[C@H](C)/C=C(C)/C=C/C/C(C)=C/Cc1nc(OC)cc(O)c1C`, the IC50 with LXF-289 cell line, in the test with NCI-H460, with HT-29 [2], in the test on RXF 944, in the test on RXF 393 and with LXFL 529 was 2 µM in each case. In addition, the IC50 (in the test with MAXF401 cell line; in test [3]; with CWR22R; in test [4]; in test [5]; in the test with PANC-1) was 2 µM in each case. Also, the half-maximal inhibitory concentration (IC50) (in the test with OVCAR-3; in the test on MEXF514; in [6]; with MCF7 [7]; with PC-3M; with SF-268) was 2 µM in each case. In addition, the IC50 (in [8]; in the test with HCT-116 [9]; in the test on T-24; with LNCaP; in the test with DU-145; with MEXF276L) was 2 µM in each case. In addition, the concentration for half-maximal inhibition (IC50) in test [10] was 2 µM.
With `C=C(C)[C@H]1CC=C(CO)CC1`, the IC50 was 158 µM in the test with T84, 78.5 µM in the test with Caco-2 and 100 µM in the test on HT-29 [11].
For `CO[C@]12C=C[C@](C)(O1)[C@@H](OC(=O)/C=C/c1cn(C)cn1)C[C@H]1C(C)=CC[C@H](C(C)C)[C@H]1/C=C\2CO[C@@H]1OC[C@@H](O)[C@@H](O)[C@@H]1OC(C)=O` [ELEUTHEROBIN], the 50% inhibitory concentration (IC50) in the test with HCT-116 [12], in the test on A2780 and in the test on HCT-116/VM46 was 0.01 µM in each case.
For `C[C@@H](N)[C@H](O)CCCCCCCC(=O)CCCCCCCCCCCCCC[C@H](O[C@@H]1O[C@H](CO)[C@H](O)[C@H](O)[C@H]1O)[C@@H](C)N`, the IC50 in the test on THP-1 and in the test on HL-60 was 1.7 µM each time.
